{"source": "ChEMBL document CHEMBL1201862", "about": "“PubChem BioAssay data set” (2004)", "key": {"[1]": {"biological_target": "T1, Neuropeptides B/W receptor type 1 (Homo sapiens, UniProt P48145)", "T1 sequence (P48145 whole entry)": "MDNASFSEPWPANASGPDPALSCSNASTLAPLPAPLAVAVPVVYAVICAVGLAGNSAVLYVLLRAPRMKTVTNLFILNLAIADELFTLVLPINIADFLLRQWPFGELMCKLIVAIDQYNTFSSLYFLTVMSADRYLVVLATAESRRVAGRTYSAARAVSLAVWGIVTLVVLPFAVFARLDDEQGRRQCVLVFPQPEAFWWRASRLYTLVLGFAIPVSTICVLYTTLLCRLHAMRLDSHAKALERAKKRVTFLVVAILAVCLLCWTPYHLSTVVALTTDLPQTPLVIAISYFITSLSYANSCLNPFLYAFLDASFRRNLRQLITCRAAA", "experiment": "Fluorescence-based dose response cell-based high throughput screening assay to identify antagonists of the G-protein coupled receptor 7 (GPR7). [Related pubchem assays: 1952 (Screening assay (GPR7 antagonists).), 1880 (Summary AID.)]", "type": "functional"}, "[2]": {"biological_target": "Melanin-concentrating hormone receptor 1 (Homo sapiens, UniProt Q99705)", "sequence (Q99705 whole entry)": "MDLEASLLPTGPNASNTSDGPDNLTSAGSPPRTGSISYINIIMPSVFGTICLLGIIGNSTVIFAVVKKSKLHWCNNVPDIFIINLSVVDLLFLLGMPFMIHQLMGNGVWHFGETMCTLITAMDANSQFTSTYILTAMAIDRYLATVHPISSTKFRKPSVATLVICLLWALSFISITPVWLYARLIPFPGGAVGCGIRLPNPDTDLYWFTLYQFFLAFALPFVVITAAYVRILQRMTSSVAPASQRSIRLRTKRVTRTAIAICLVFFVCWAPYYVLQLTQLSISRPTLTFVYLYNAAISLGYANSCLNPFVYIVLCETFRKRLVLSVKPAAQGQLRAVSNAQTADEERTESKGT", "experiment": "Fluorescence-based counterscreen for antagonists of the G-protein coupled receptor 7 (GPR7): cell-based high throughput dose response assay to identify antagonists of the melanin-concentrating hormone receptor 1 (MCHR1).", "type": "functional"}, "[3]": {"biological_target": "T2, RNA-binding protein pos-1 (Caenorhabditis elegans, UniProt G5EF15)", "T2 sequence (G5EF15 whole entry)": "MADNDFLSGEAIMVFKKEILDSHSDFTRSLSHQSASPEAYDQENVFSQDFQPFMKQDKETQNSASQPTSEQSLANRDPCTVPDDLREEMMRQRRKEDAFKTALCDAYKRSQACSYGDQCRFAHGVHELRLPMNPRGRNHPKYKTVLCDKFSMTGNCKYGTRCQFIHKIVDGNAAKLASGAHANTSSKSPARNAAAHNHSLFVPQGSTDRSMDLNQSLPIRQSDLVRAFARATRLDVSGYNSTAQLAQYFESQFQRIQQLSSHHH", "experiment": "inhibitors of POS-1/mex-3 RNA binding, dose response, biochemical, fluorescence polarization (AID 1964);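 also: purified POS-1 fused to maltose binding protein made in E. coli; potency of compounds blocking POS-1 binding to fluorescent RNA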"}, "[4]": {"biological_target": "T3, Zinc finger protein mex-5 (Caenorhabditis elegans, UniProt Q9XUB2)", "T3 sequence (Q9XUB2 whole entry)": "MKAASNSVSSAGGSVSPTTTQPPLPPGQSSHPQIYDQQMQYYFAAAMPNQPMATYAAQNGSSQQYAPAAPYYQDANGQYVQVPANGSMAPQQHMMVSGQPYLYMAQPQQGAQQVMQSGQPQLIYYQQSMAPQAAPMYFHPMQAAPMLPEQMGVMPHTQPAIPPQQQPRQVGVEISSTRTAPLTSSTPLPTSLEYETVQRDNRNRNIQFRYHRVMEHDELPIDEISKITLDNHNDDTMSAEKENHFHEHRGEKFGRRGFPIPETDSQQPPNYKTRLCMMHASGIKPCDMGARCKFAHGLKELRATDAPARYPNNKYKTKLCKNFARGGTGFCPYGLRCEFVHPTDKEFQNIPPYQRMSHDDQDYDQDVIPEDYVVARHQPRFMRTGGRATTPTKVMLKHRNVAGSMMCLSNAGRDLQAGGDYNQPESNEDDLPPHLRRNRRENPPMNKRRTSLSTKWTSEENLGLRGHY", "experiment": "MEX-5/TCR-2 RNA interaction inhibitors, dose response, biochemical, C. elegans, fluorescence polarization (AID 1960)"}, "NS3": {"biological_target": "NS3 (Hepatitis C virus, UniProt A3EZJ3)", "sequence (A3EZJ3 whole entry)": "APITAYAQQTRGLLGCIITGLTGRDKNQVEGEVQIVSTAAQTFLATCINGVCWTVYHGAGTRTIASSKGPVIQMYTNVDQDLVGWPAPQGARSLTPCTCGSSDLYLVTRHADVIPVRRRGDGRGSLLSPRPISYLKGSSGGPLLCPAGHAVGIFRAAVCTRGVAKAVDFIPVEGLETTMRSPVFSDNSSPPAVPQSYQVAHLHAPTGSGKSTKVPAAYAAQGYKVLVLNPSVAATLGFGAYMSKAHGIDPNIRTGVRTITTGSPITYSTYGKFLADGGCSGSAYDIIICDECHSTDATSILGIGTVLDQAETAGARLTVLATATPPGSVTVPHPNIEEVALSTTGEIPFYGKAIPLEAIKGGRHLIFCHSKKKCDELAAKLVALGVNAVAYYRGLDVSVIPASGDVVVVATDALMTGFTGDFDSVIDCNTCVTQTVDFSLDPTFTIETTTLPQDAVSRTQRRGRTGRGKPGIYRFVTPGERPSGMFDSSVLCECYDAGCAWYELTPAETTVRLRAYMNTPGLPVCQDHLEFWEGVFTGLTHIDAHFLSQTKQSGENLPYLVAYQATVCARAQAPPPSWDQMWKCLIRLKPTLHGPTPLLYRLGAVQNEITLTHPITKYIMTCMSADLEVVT", "experiment": "PubChem AID 2173", "design": "species or system Hepacivirus hominis"}, "[5]": {"experiment": "THP-1 cell cytotoxicity, dose response, cytotoxicity control for non-replicating M. tuberculosis project (AID 489025)", "type": "functional"}, "[6]": {"biological_target": "T4, Heat shock factor protein 1 (Mus musculus, UniProt P38532)", "T4 sequence (P38532 whole entry)": "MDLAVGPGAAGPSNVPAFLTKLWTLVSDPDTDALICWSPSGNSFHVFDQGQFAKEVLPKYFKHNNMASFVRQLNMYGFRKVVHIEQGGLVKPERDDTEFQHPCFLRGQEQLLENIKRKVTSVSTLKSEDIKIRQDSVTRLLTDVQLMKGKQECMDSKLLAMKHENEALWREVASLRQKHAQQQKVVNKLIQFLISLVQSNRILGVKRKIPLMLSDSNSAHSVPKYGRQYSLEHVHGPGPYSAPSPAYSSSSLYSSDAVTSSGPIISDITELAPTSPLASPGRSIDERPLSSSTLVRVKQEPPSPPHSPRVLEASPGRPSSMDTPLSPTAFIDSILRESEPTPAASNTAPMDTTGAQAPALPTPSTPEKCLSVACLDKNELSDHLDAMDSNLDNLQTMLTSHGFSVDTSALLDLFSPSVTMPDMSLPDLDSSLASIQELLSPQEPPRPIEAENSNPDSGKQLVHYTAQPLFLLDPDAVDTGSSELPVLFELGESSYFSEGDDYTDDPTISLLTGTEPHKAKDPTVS", "experiment": "HSF1 potentiators in luciferase reporter cells, confirmation, cell-based, NIH3T3, luminescence, dose retest (AID 435004);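 also: stress induced by proteasome inhibitor MG132 added 30 min after compound; actives raise luminescence as potentiators of the MG132 stress response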", "type": "functional"}, "cells": {"experiment": "cells", "type": "functional"}, "Vero": {"tested_on": "Vero", "experiment": "cells", "type": "functional", "settings": "Chlorocebus sabaeus"}, "[7]": {"biological_target": "T5, Eukaryotic translation initiation factor 4H (Homo sapiens, UniProt Q15056)", "experiment": "human eIF4H binding inhibitors, primary screen, translation initiation inhibitor project, biochemical, uHTS, fluorescence polarization (AID 2012)"}, "[8]": {"biological_target": "T6, Polyadenylate-binding protein 1 (Homo sapiens, UniProt P11940)", "T6 sequence (P11940 whole entry)": "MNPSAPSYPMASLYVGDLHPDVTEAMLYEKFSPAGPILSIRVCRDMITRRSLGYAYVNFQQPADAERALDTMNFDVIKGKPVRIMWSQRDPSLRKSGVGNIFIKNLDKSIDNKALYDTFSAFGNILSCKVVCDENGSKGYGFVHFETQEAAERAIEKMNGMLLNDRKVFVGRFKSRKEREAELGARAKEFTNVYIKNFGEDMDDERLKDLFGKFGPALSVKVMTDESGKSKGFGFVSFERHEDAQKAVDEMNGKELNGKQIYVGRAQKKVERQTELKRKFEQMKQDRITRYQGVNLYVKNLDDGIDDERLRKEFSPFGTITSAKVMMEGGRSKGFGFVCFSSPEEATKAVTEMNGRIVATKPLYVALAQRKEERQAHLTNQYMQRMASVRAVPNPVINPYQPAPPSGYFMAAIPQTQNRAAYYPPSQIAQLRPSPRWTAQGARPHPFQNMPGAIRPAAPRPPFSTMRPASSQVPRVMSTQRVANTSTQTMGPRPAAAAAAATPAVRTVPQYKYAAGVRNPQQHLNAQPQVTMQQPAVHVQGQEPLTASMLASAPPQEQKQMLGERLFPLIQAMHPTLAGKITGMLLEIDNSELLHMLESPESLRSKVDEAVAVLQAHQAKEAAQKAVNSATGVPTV", "experiment": "PABP poly(A) RNA binding inhibitors, primary screen, biochemical, fluorescence polarization, uHTS (AID 2014)"}, "[9]": {"biological_target": "T5, Eukaryotic translation initiation factor 4H", "experiment": "eIF4H inhibition in translation initiation, SAR follow-up (AID 435011)", "type": "functional"}, "[10]": {"biological_target": "DNA dC->dU-editing enzyme APOBEC-3A (Homo sapiens, UniProt P31941)", "sequence (P31941 whole entry)": "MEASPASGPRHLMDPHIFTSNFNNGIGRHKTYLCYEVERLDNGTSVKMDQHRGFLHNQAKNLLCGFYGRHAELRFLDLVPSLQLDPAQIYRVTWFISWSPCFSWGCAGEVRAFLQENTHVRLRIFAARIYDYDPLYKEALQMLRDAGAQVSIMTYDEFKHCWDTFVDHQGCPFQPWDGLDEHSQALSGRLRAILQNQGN", "experiment": "Dose Response confirmation of small molecule APOBEC3A DNA Deaminase Inhibitors via a fluorescence-based single-stranded DNA deaminase assay. [Related pubchem assays (depositor defined):AID493011, AID493024]", "type": "functional"}, "[11]": {"biological_target": "T6, Polyadenylate-binding protein 1", "experiment": "PABP inhibition in translation initiation, SAR follow-up (AID 435018)", "type": "functional"}, "[12]": {"biological_target": "DNA dC->dU-editing enzyme APOBEC-3G (Homo sapiens, UniProt Q9HC16)", "sequence (Q9HC16 whole entry)": "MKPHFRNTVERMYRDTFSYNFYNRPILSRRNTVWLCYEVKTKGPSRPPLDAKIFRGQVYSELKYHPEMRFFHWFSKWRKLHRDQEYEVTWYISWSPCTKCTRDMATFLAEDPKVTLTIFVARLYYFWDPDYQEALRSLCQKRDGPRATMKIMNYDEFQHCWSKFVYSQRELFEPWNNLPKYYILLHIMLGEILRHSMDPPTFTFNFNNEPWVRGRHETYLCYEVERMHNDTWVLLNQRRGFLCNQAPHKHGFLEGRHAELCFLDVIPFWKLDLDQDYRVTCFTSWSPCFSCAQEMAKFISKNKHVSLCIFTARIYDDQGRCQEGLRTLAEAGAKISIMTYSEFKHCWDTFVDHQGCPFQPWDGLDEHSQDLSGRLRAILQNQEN", "type": "functional"}, "Aspartyl aminopeptidase": {"biological_target": "Aspartyl aminopeptidase (Plasmodium falciparum 3D7, UniProt Q8I2J3)", "sequence (Q8I2J3 whole entry)": "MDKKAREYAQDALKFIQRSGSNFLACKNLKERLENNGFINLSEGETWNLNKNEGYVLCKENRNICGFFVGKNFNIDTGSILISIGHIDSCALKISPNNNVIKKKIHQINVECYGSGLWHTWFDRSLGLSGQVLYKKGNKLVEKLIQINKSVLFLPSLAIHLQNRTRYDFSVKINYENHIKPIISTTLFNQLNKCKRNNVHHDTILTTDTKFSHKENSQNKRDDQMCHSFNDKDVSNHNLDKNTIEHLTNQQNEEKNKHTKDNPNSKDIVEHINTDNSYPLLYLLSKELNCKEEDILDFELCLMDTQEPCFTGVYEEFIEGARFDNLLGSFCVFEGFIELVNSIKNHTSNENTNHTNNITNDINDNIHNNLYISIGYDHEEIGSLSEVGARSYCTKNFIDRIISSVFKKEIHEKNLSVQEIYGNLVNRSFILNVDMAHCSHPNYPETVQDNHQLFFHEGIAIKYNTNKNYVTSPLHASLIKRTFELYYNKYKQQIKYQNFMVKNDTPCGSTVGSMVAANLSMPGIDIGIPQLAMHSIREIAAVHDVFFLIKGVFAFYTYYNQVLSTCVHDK"}, "Procathepsin L": {"biological_target": "Procathepsin L (Homo sapiens, UniProt P07711)", "sequence (P07711 whole entry)": "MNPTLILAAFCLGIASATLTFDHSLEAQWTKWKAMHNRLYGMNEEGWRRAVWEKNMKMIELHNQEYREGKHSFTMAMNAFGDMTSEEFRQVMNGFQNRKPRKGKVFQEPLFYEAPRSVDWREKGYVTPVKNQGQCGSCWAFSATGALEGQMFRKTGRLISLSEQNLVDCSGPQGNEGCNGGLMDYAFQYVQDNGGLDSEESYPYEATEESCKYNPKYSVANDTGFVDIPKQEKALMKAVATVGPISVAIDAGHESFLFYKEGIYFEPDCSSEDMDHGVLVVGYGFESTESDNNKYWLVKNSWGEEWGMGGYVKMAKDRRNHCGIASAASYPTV"}, "[13]": {"biological_target": "T7, Mannose-6-phosphate isomerase (Homo sapiens, UniProt P34949)", "T7 sequence (P34949 whole entry)": "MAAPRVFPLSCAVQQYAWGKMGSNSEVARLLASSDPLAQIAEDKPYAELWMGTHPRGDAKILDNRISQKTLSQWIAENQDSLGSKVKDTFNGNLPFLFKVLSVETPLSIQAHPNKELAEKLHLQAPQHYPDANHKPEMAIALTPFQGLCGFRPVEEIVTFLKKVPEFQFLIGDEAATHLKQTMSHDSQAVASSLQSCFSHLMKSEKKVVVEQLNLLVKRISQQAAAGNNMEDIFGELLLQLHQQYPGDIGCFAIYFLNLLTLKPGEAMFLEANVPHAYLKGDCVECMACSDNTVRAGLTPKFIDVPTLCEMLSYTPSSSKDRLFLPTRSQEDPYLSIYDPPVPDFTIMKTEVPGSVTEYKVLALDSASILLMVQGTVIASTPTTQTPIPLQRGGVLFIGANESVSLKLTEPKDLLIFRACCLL", "experiment": "inhibitors of human PMI, primary screen, biochemical, fluorescence intensity, coupled assay (AID 1209)"}, "[14]": {"biological_target": "T7, Mannose-6-phosphate isomerase", "experiment": "human PMI inhibitors, high substrate, primary screen, biochemical, fluorescence intensity, high mannose 6-phosphate (AID 1220)"}}, "note": "The source made the active and inactive calls.", "data": [{"compound": "COc1ccc(S(=O)(=O)N2CCC(C(=O)NCc3ccco3)CC2)cc1", "values": [{"measurement": "IC50", "setting": "[1]", "result": "> 43.8 µM (not active)"}, {"measurement": "IC50", "setting": "[2]", "result": "> 43.8 µM (not active)"}]}, {"compound": "COc1ccc(N2C(=O)NC(=O)/C(=C/c3ccc([N+](=O)[O-])s3)C2=O)cc1", "values": [{"measurement": "EC50", "setting": "[3]", "result": "> 300 µM (not active)"}, {"measurement": "EC50", "setting": "[4]", "result": "24.3 µM (active)"}, {"measurement": "IC50", "setting": "NS3", "result": "9.42 µM (active)"}, {"measurement": "CC50", "setting": "[5]", "result": "38.5 µM (active)"}, {"measurement": "EC50", "setting": "[6]", "result": "8.55 µM (active)"}, {"measurement": "IC50", "setting": "cells", "result": "26.7 µM (active)"}, {"measurement": "CC50", "setting": "Vero", "result": "> 25 µM (active)"}]}, {"compound": "Cc1ccc(NC(=O)C2CCN(C(=O)c3cccs3)CC2)c(C)c1", "values": [{"measurement": "IC50", "setting": "[7]", "result": "> 100 µM (inactive)"}, {"measurement": "IC50", "setting": "[8]", "result": "6.51 µM (active)"}, {"measurement": "IC50", "setting": "[9]", "result": "47.6 µM (active)"}, {"measurement": "IC50", "setting": "[10]", "result": "4.37 µM (active)"}, {"measurement": "IC50", "setting": "[11]", "result": "4.95 µM (active)"}, {"measurement": "IC50", "setting": "[12]", "result": "6.56 µM (active)"}]}, {"compound": "CCOC(=O)NC1(Nc2ccc(C)cc2)Oc2ccccc2O1", "values": [{"measurement": "IC50", "setting": "Aspartyl aminopeptidase", "result": "5.07 µM (active)"}, {"measurement": "IC50", "setting": "Procathepsin L", "result": "> 59.6 µM (not active)"}, {"measurement": "IC50", "setting": "[13]", "result": "> 50 µM (not active)"}, {"measurement": "IC50", "setting": "[14]", "result": "> 50 µM (not active)"}]}]}
